Laboratory results published in patent publication US7981883B2, “Substituted spiro-compounds and the use thereof for producing medicaments” (Gruenenthal GmbH, priority 2005, dated 2011).

Tests used:
Type in all cases: cell-based
VR1 (human) = target: T1, VR1 (human) (Homo sapiens, UniProt Q8NER1); assay: Functional FLIPR Ca2+ inflow assay on VR1 (human), CHO K1 cells stably transfected with the VR1 gene; details: test compound 10 μM; for VR1 (human) (% inhibition compared to 10 μM CP) / inhibition at 10 µM: then 100 nM capsaicin after 5 min, relative to maximum inhibition with 10 μM capsaicin; for VR1 (human) (% stimulation compared to 10 μM CP) / activation at 10 µM: Ca2+ signal relative to 10 μM capsaicin (CP); for inhibition at 10 µM / activation at 10 µM: CHO-K1; for inhibition at 10 µM: read-out: VR1 (human) (% inhibition compared to 10 μM CP); for activation at 10 µM: read-out: VR1 (human) (% stimulation compared to 10 μM CP)
T1 construct: expressed in transfected cells; host or cells: CHO K1 cells (ECACC)
Source text: II. Functional Testing Carried Out on the Vanilloid Receptor (VR1)
The agonistic or antagonistic effect of the substances to be tested can also be determined on the vanilloid receptor (VR1) using the following assay. According to this assay, the Ca^2+ inflow is quantified through the channel using a Ca^2+-sensitive dye (type Fluo-4, Molecular Probes Europe BV, Leiden, Netherlands) in a fluorescent imaging plate reader (FLIPR, Molecular Devices, Sunnyvale, USA).
Chinese hamster ovary cells (CHO K1 cells, European Collection of Cell Cultures (ECACC) United Kingdom) were stably transfected with the VR1 gene. For functional testing, these cells were plated out on poly-D-lysine-coated black 96 well plates having a clear base (BD Biosciences, Heidelberg, Germany) at a density of 25,000 cells/well. The cells were incubated overnight at 37° C. and 5% CO2 in a culture medium (Ham's F12 nutrient mixture, 10% by volume of FCS (foetal calf serum), 18 μg/ml L-proline). The next day the cells were incubated with Fluo-4 (Fluo-4 2 μM, 0.01% by volume of Pluronic F127, Molecular Probes in HBSS (Hank's buffered saline solution), Gibco Invitrogen GmbH, Karlsruhe, Germany) for 30 minutes at 37° C. Subsequently, the plates were washed three times with HBSS buffer and after further incubation for 15 minutes at room temperature used for Ca^2+ measurement in a FLIPR assay. The Ca^2+-dependent fluorescence was measured before and after the addition of the substances to be tested (λex wavelength=488 nm, λem=540 nm). Quantification was carried out by measuring the highest fluorescence intensity (FC, Fluorescence Counts) over time.
The FLIPR protocol consists of 2 substance additions. First the compounds to be tested (10 μM) were pipetted onto the cells and the Ca^2+ inflow was compared with the control (capsaicin 10 μM) (% activation based on the Ca^2+ signal after the addition of 10 μM capsaicin). After 5 minutes' incubation, 100 nM of capsaicin were administered and the Ca^2+ inflow was also determined.
Desensitising agonists and antagonists led to suppression of the Ca^2+ inflow. The % inhibition was calculated compared to the maximum achievable inhibition with 10 μM of capsaicin.

VR1 (rat) [1] = target: T2, VR1 (rat) (Rattus norvegicus, UniProt O35433); assay: Functional FLIPR Ca2+ inflow assay on rat-species vanilloid receptor 1 in rat dorsal root ganglia cells; details: test compound 10 μM; for VR1 (rat) (% inhibition compared to 10 μM CP) / inhibition at 10 µM: then 100 nM capsaicin after 5 min, relative to maximum inhibition with 10 μM capsaicin; for VR1 (rat) (% stimulation compared to 10 μM CP) / activation at 10 µM: Ca2+ signal relative to 10 μM capsaicin (CP); for inhibition at 10 µM: read-out: VR1 (rat) (% inhibition compared to 10 μM CP); for activation at 10 µM: read-out: VR1 (rat) (% stimulation compared to 10 μM CP)
T2 construct: from tissue; host or cells: primary cells dissociated from rat dorsal root ganglia
Source text: I. Functional Testing Carried Out on the Vanilloid Receptor 1 (VR1/TRPV1 Receptor)
The agonistic or antagonistic effect of the substances to be tested can be determined on the rat-species vanilloid receptor 1 (VR1/TRPV1) using the following assay. According to this assay, the Ca^2+ inflow is quantified through the receptor channel using a Ca^2+-sensitive dye (type Fluo-4, Molecular Probes Europe BV, Leiden, Netherlands) in a fluorescent imaging plate reader (FLIPR, Molecular Devices, Sunnyvale, USA).
Complete medium: 50 mL HAMS F12 nutrient mixture (Gibco Invitrogen GmbH, Karlsruhe, Germany) with
10% by volume of FCS (foetal calf serum, Gibco Invitrogen GmbH, Karlsruhe, Germany, […]);
2 mM L-glutamine (Sigma, Munich, Germany);
1% by weight of AA solution (antibiotic/antimyotic solution, PAA, Pasching, Austria) and 25 ng/ml NGF medium (2.5 S, Gibco Invitrogen GmbH, Karlsruhe, Germany)
Cell culture plate: Poly-D-lysine-coated, black 96 well plates having a clear base (96 well black/clear plate, BD Biosciences, Heidelberg, Germany) were additionally coated with laminin (Gibco Invitrogen GmbH, Karlsruhe, Germany), the laminin being diluted with PBS (Ca—Mg-free PBS, Gibco Invitrogen GmbH, Karlsruhe, Germany) to a concentration of 100 μg/mL. Aliquots having a laminin concentration of 100 μg/mL were removed and stored at −20° C. The aliquots were diluted with PBS in a ratio of 1:10 to 10 μg/mL laminin and in each case 50 μL of the solution were pipetted into a recess in the cell culture plate. The cell culture plates were incubated for at least two hours at 37° C., the excess solution was removed by suction-filtration and the recesses were each washed twice with PBS. The coated cell culture plates were stored with excess PBS which was not removed until just before the feeding of the cells.
The vertebral column was removed from decapitated rats and placed immediately into cold HBSS buffer (Hank's buffered saline solution, Gibco Invitrogen GmbH, Karlsruhe, Germany), i.e. buffer located in an ice bath, mixed with 1% by volume (percent by volume) of an AA solution (antibiotic/antimyotic solution, PAA, Pasching, Austria). The vertebral column was cut longitudinally and removed together with fasciae from the vertebral canal. Subsequently, the dorsal root ganglia (DRG) were removed and again stored in cold HBSS buffer mixed with 1% by volume of an AA solution. The DRG, from which all blood remnants and spinal nerves had been removed, were transferred in each case to 500 μL of cold type 2 collagenase (PAA, Pasching, Austria) and incubated for 35 minutes at 37° C. After the addition of 2.5% by volume of trypsin (PAA, Pasching, Austria), incubation was continued for 10 minutes at 37° C. After complete incubation, the enzyme solution was carefully pipetted off and 500 μL of complete medium were added to each of the remaining DRG. The DRG were in each case suspended several times, drawn through cannulae No. 1, No. 12 and No. 16 using a syringe and transferred to a 50 mL Falcon tube which was filled up to 15 mL with complete medium. The contents of each Falcon tube was in each case filtered through a 70 μm Falcon filter element and centrifuged for 10 minutes at 1,200 rpm and room temperature. The resulting pellet was in each case taken up in 250 μL of complete medium and the number of cells determined.
The number of cells in the suspension was set to 3×10^5 per mL and 150 μL of this suspension were in each case introduced into a recess in the cell culture plates coated as described hereinbefore. In the incubator the plates were left for two to three days at 37° C., 5% by volume of CO2 and 95% relative humidity. […]

VR1 (rat) [2] = target: T2, VR1 (rat); assay: as above; details: against capsaicin (CAP)

T2 sequence (O35433 whole entry): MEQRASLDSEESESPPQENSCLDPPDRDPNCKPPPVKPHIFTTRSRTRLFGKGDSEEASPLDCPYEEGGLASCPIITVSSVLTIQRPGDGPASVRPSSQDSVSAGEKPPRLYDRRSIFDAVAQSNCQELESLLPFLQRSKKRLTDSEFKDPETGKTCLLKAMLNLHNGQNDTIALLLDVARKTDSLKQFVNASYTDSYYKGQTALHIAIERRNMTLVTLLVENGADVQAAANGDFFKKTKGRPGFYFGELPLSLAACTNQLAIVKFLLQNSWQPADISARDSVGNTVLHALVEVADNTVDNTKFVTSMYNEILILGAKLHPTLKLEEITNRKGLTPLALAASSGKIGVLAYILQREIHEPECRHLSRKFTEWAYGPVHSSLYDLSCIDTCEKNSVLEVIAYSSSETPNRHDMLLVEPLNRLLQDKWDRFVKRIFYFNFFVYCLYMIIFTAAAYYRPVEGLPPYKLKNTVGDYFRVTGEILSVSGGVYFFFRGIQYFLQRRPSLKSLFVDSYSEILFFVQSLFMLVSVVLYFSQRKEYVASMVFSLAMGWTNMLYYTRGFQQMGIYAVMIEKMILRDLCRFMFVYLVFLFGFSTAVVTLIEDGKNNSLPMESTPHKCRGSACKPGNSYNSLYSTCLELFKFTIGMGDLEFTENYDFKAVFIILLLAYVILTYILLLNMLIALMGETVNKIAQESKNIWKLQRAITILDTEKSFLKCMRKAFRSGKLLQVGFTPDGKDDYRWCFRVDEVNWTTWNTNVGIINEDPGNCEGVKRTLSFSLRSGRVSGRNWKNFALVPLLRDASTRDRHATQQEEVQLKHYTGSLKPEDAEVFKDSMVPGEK
T1 sequence (Q8NER1 whole entry): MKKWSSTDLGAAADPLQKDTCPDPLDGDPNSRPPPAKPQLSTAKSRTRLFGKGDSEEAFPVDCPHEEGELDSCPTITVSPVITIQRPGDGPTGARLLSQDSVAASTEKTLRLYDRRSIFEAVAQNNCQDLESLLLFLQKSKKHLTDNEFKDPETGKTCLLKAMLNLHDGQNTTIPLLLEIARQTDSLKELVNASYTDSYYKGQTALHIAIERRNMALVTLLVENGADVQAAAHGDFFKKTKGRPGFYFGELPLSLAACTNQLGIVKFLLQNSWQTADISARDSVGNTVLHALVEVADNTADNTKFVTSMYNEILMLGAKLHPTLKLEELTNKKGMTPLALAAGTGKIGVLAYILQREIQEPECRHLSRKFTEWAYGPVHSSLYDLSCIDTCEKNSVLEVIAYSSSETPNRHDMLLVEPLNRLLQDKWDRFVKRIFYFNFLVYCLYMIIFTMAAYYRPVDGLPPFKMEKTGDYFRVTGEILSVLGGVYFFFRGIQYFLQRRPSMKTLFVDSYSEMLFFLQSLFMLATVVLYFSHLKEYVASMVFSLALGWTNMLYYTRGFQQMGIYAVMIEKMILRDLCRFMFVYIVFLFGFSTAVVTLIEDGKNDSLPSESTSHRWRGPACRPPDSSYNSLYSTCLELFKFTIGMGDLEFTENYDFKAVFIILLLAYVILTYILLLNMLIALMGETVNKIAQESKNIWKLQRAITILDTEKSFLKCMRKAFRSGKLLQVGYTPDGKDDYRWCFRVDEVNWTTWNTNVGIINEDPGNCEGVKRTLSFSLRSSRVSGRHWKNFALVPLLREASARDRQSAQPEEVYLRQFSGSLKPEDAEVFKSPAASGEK

Molecule | VR1 (human) (% inhibition compared to 10 μM CP) (VR1 (human)) | VR1 (human) (% stimulation compared to 10 μM CP) (VR1 (human)) | VR1 (rat) (% inhibition compared to 10 μM CP) (VR1 (rat) [1]) | VR1 (rat) (% stimulation compared to 10 μM CP) (VR1 (rat) [1]) | inhibition at 10 µM (VR1 (human)) | activation at 10 µM (VR1 (human)) | inhibition at 10 µM (VR1 (rat) [1]) | activation at 10 µM (VR1 (rat) [1]) | IC50 (VR1 (rat) [2]) | Ki (VR1 (rat) [2])
COc1cc2c(cc1OC)CN(C(=O)C1=NO[C@]3(CC[C@H](C(C)(C)C)CC3)C1)CC2 [Example 18, trans-(8-tert-butyl-1-oxa-2-azaspiro[4.5]dec-2-en-3-yl)-(6,7-dimethoxy-3,4-dihydro-1H-isoquinolin-2-yl)methanone] | 22.05% | 24.24% | 97.62% | 84.04% |  |  |  |  |  | 
COc1cc2c(cc1OC)CN(C(=O)C1=NO[C@]3(CC[C@@H](C(C)(C)C)CC3)C1)CC2 [Example 19, cis-(8-tert-butyl-1-oxa-2-azaspiro[4.5]dec-2-en-3-yl)-(6,7-dimethoxy-3,4-dihydro-1H-isoquinolin-2-yl)methanone] | 22.55% | 13.41% | 95.49% | 70.81% |  |  |  |  |  | 
CC(C)(C)C1CCC2(CC1)CC(C(=O)N1CCCN(c3ncccc3Cl)CC1)=NO2 (stereo not drawn) [Example 21, trans-(8-tert-butyl-1-oxa-2-azaspiro[4.5]dec-2-en-3-yl)-[4-(3-chloropyridin-2-yl)-[1,4]diazepan-1-yl]methanone] | 6.75% | −0.05% | 52.32% | 0.37% |  |  |  |  |  | 
CC(C)(C)[C@H]1CC[C@@]2(CC1)CC(C(=O)N1CCCN(c3ncccc3Cl)CC1)=NO2 [Example 22, cis-(8-tert-butyl-1-oxa-2-azaspiro[4.5]dec-2-en-3-yl)-[4-(3-chloropyridin-2-yl)-[1,4]diazepan-1-yl]methanone] | 0.14% | 0.13% | 16.63% | −0.37% |  |  |  |  |  | 
CC(C)(C)C1CCC2(CC1)CC(C(=O)NCc1ccncc1)=NO2 (stereo not drawn) [Example 23, trans-8-tert-butyl-1-oxa-2-azaspiro[4.5]dec-2-ene-3-carboxylic acid (pyridin-4-ylmethyl)amide] | 54.21% | 23.79% | 69.46% | 55.21% |  |  |  |  |  | 
CC(C)(C)[C@H]1CC[C@@]2(CC1)CC(C(=O)NCc1ccncc1)=NO2 [Example 24, cis-8-tert-butyl-1-oxa-2-azaspiro[4.5]dec-2-ene-3-carboxylic acid (pyridin-4-ylmethyl)amide] | 83.01% | 91.72% | 97.79% | 87.96% |  |  |  |  |  | 
CC(C)(C)[C@H]1CC[C@]2(CC1)CC(C(=O)NCc1ccc(NS(C)(=O)=O)c(F)c1)=NO2 [Example 25, trans-8-tert-butyl-1-oxa-2-azaspiro[4.5]dec-2-ene-3-carboxylic acid-3-fluoro-4-methanesulphonylaminobenzylamide] |  |  |  |  | 56.5% | 0.16% | 98.3% | 1.04% |  | 
((5R,8R)-8-tert-butyl-1-oxa-2-azaspiro[4.5]dec-2-en-3-yl)(4-(3-chloropyridin-2-yl)-2,6-dimethylpiperazin-1-yl)methanone [Example 58] | 67% | 27% | 107% | 46% |  |  |  |  |  | 

Results, then the molecule that gave them:

VR1 (human) (% inhibition compared to 10 μM CP) (VR1 (human)) | VR1 (human) (% stimulation compared to 10 μM CP) (VR1 (human)) | VR1 (rat) (% inhibition compared to 10 μM CP) (VR1 (rat) [1]) | VR1 (rat) (% stimulation compared to 10 μM CP) (VR1 (rat) [1]) | inhibition at 10 µM (VR1 (human)) | activation at 10 µM (VR1 (human)) | inhibition at 10 µM (VR1 (rat) [1]) | activation at 10 µM (VR1 (rat) [1]) | IC50 (VR1 (rat) [2]) | Ki (VR1 (rat) [2]) | Molecule
 |  |  |  | 64% | 15% | 97% | 60% | 545 nM | 63.7 nM | CC(C)(C)c1ccc(NC(=O)C2CCC3(CC2)CC(c2ccccc2)=NO3)cc1 (stereo not drawn) [Example 50, 3-phenyl-1-oxa-2-azaspiro[4.5]dec-2-ene-8-carboxylic acid-(4-tert-butylphenyl)amide]
25% | 17% | 91% | 73% |  |  |  |  |  |  | CC(C)(C)c1ccc(NC(=O)[C@H]2CC[C@@]3(CC2)CC(c2ccccc2)=NO3)cc1 [Example 51, 3-phenyl-1-oxa-2-azaspiro[4.5]dec-2-ene-8-carboxylic acid-cis-(4-tert-butylphenyl)amide]
 |  |  |  | 54% | 53% | 101% | 87% |  |  | COc1cccc(C2=NOC3(CCC(C(=O)Nc4ccc(C(C)(C)C)cc4)CC3)C2)c1 (stereo not drawn) [Example 66, N-(4-tert-butylphenyl)-3-(3-methoxyphenyl)-1-oxa-2-azaspiro[4.5]dec-2-ene-8-carboxamide]
 |  |  |  | 31% | 33% | 103% | 61% |  |  | CC(C)(C)c1ccc(NC(=O)C2CCC3(CC2)CC(C(=O)N2CCN(c4ncccc4Cl)CC2)=NO3)cc1 (stereo not drawn) [Example 84, N-(4-tert-butylphenyl)-3-(4-(3-chloropyridin-2-yl)piperazin-1-carbonyl)-1-oxa-2-azaspiro[4.5]dec-2-ene-8-carboxamide]
 |  |  |  | 34% | 36% | 100% | 43% |  |  | CC(C)(C)C1CCC2(CC1)CC(C(=O)Nc1ccc(NS(C)(=O)=O)c(F)c1)=NO2 (stereo not drawn) [Example 90, 8-tert-butyl-N-(3-fluoro-4-(methylsulphonamido)phenyl)-1-oxa-2-azaspiro[4.5]dec-2-ene-3-carboxamide]
